Results reported in ChEMBL document CHEMBL6121040, “Synthesis and biological assessment of BUB1B inhibitors for the treatment of clear cell renal cell carcinoma” (Eur J Med Chem, 2025).
Calls of active or inactive are those of the source. The rule behind the calls is not given here.

How the values were obtained:
CAKI-1 [1] = assay: Induction of apoptosis in human CAKI-1 cells assessed as increase in cleaved PARP level by measuring fold change at 10 uM incubated for 1 day by Western blot analysis (reference value: 1); format: functional
[2] = Downregulation of BUB1B protein expression level in human CAKI-1 cells at 10 uM incubated for 1 day by Western blot analysis (Rvb =1); format: functional
CAKI-1 [3] = assay: Cytotoxicity against human CAKI-1 cells assessed as necrotic cell death incubated for 1 day by LDH assay; format: functional, cell-based; conditions: CAKI-1, 24 h
[4] = Cytotoxicity against human MRC5 cells assessed as cell viability at 5 uM incubated for 1 day relative to control; format: toxicity, cell-based; conditions: read-out: Activity
[5] = target: T1, Mitotic checkpoint serine/threonine-protein kinase BUB1 beta (Homo sapiens, UniProt O60566); assay: Inhibition of recombinant BUB1B (unknown origin) incubated for 60 mins in presence of [gamma-33P]-ATP by microplate scintillation counter analysis
CAKI-1 [6] = assay: Induction of apoptosis in human CAKI-1 cells assessed as increase in cleaved caspase-3 protein level at 10 uM incubated for 1 day by Western blot analysis; format: functional, cell-based
CAKI-1 [7] = assay: Cytotoxicity against human CAKI-1 cells assessed as cell viability at 10 uM incubated for 1 day by MTT assay relative to control; format: functional; conditions: CAKI-1, 24 h, read-out: Activity
CAKI-1 [8] = assay: Induction of apoptosis in human CAKI-1 cells assessed as decrease in Bcl-2 protein level by measuring fold change at 10 uM incubated for 1 day by Western blot analysis (reference value: 1); format: functional
CAKI-1 [9] = assay: Cytotoxicity against human CAKI-1 cells assessed as cell viability at 10 uM incubated for 3 day by MTT assay relative to control; format: functional; conditions: CAKI-1, 72 h, read-out: Activity
CAKI-1 [10] = assay: Cytotoxicity against human CAKI-1 cells assessed as necrotic cell death incubated for 3 days by LDH assay; format: functional, cell-based; conditions: CAKI-1, 72 h
[11] = target: T1, Mitotic checkpoint serine/threonine-protein kinase BUB1 beta; assay: Destabilization of BUB1B in human CAKI-1 cells assessed as reduction in BUB1B protein level at 20 uM preincubated for 1 hrs followed by incubation under 45 degreeC for 3 mins by CETSA analysis (reference value: 1); format: cell-based; conditions: time 63.0 min
[12] = Cytotoxicity against human HaCaT cells assessed as cell viability at 1 uM incubated for 1 day relative to control; format: toxicity, cell-based; conditions: read-out: Activity
[13] = Cytotoxicity against human MRC5 cells assessed as cell viability at 1 uM incubated for 1 day relative to control; format: toxicity, cell-based; conditions: read-out: Activity
[14] = Downregulation of BUB1B protein expression level in human CAKI-1 cells at IC50 concentration incubated for 1 day by Western blot analysis (Rvb =1); format: functional
CAKI-1 [15] = assay: Cytotoxicity against human CAKI-1 cells assessed as reduction in cell viability incubated for 3 days by MTT assay; format: functional, cell-based; conditions: for IC50: CAKI-1, 72 h; for Activity: time 3.0 day
CAKI-1 [16] = assay: Cytotoxicity against human CAKI-1 cells assessed as reduction in cell viability incubated for 1 day by MTT assay; format: functional, cell-based; conditions: CAKI-1, 24 h
CAKI-1 [17] = assay: Induction of apoptosis in human CAKI-1 cells assessed as increase in cleaved caspase-9 protein level at 10 uM incubated for 1 day by Western blot analysis; format: functional, cell-based
CAKI-1 [18] = assay: Induction of apoptosis in human CAKI-1 cells assessed as decrease in Bcl-2 protein level by measuring fold change at IC50 concentration incubated for 1 day by Western blot analysis (reference value: 1); format: functional
[19] = Cytotoxicity against human HaCaT cells assessed as cell viability at 5 uM incubated for 1 day relative to control; format: toxicity, cell-based; conditions: read-out: Activity
CAKI-1 [20] = assay: Induction of apoptosis in human CAKI-1 cells assessed as increase in cleaved PARP level by measuring fold change at IC50 concentration incubated for 1 day by Western blot analysis (reference value: 1); format: functional
CAKI-1 [21] = assay: Induction of apoptosis in human CAKI-1 cells assessed as increase in cleaved caspase-8 protein level at 10 uM incubated for 1 day by Western blot analysis; format: functional, cell-based
CAKI-1 [22] = assay: Cytotoxicity against human CAKI-1 cells assessed as reduction in cell viability at 10 uM by MTT assay; format: functional, cell-based; conditions: time 1-3 day

T1 sequence (O60566 whole entry): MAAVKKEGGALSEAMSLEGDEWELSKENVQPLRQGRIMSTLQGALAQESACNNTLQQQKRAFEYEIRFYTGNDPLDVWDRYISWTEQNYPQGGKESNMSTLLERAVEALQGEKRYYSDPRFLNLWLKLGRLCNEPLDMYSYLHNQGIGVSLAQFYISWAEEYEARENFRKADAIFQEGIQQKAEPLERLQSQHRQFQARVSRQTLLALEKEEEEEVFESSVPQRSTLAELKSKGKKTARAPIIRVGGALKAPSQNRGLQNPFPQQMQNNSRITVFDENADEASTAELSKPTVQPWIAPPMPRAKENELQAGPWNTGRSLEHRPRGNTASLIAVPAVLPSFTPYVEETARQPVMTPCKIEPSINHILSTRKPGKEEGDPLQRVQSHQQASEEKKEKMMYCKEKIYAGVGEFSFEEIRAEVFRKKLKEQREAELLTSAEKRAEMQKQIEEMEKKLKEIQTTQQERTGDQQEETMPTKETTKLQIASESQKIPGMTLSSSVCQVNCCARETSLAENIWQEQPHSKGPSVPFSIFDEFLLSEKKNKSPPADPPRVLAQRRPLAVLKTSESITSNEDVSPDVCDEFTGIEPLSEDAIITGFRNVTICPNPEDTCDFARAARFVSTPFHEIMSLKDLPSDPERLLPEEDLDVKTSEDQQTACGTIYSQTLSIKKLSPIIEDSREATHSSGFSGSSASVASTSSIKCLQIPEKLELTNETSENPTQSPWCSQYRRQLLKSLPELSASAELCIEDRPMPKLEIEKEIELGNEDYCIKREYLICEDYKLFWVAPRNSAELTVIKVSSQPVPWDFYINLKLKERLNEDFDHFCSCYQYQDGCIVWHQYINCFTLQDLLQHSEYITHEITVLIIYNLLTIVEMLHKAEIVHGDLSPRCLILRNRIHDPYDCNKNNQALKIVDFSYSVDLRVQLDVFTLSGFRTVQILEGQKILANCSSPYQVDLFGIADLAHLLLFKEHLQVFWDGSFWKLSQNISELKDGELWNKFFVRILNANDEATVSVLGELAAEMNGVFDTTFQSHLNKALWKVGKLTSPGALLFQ

Cc1cnc(Nc2ccc(N3CCN(C)CC3)cc2)nc1Nc1cccc(S(=O)(=O)NC(C)(C)C)c1
fold change (FC) (CAKI-1 [1]): 24.35 | fold change (FC) [2]: 0.02 | IC50 (CAKI-1 [3]): 23.9 µM | viability at 24 h, 5 µM [4]: 38.8% | IC50 [5]: 67.3 µM | Activity (CAKI-1 [6]): Active | viability at 10 µM (CAKI-1 [7]): 43.6% | fold change (FC) (CAKI-1 [8]): 0.28 | viability at 10 µM (CAKI-1 [9]): 18.9% | EC50 (CAKI-1 [10]): 6.6 µM | fold change (FC) [11]: 2.19 | viability at 24 h, 1 µM [12]: 76.4% | viability at 24 h, 1 µM [13]: 107% | fold change (FC) [14]: 0.14 | IC50 (CAKI-1 [15]): 1.1 µM | Activity (CAKI-1 [15]): Dose-dependent-effect | IC50 (CAKI-1 [16]): 1.5 µM | Activity (CAKI-1 [17]): Active | fold change (FC) (CAKI-1 [18]): 0.62 | viability at 24 h, 5 µM [19]: 39.4% | fold change (FC) (CAKI-1 [20]): 2.65 | Activity (CAKI-1 [21]): Active

Cc1cn(-c2cc(Nc3ncc(C)c(Nc4cccc(S(=O)(=O)NC(C)(C)C)c4)n3)cc(C(F)(F)F)c2)cn1
viability at 10 µM (CAKI-1 [7]): 49.6%

Cc1ccc(Nc2ncc(C)c(Nc3cccc(S(=O)(=O)NC(C)(C)C)c3)n2)cc1Nc1nccc(-c2cccnc2)n1
viability at 10 µM (CAKI-1 [7]): 77%

COc1ccc(Nc2ncc(C)c(Nc3cccc(S(=O)(=O)NC(C)(C)C)c3)n2)c(OC)c1
viability at 10 µM (CAKI-1 [7]): 66.5%

COc1cnccc1Nc1nc(-c2nn(Cc3c(F)cc(OCCO)cc3F)c3ccccc23)ncc1OC
fold change (FC) (CAKI-1 [1]): 1.23 | fold change (FC) [2]: 0.73 | Activity (CAKI-1 [22]): Time-dependent-effect | IC50 [5]: > 100 µM | Activity (CAKI-1 [6]): inactive | viability at 10 µM (CAKI-1 [7]): 57.8% | fold change (FC) (CAKI-1 [8]): 1.03 | viability at 10 µM (CAKI-1 [9]): 49.7% | EC50 (CAKI-1 [10]): 15.9 µM | fold change (FC) [11]: 1.33 | fold change (FC) [14]: 0.65 | IC50 (CAKI-1 [15]): 10.4 µM | Activity (CAKI-1 [15]): Dose-dependent-effect | IC50 (CAKI-1 [16]): 24.4 µM | Activity (CAKI-1 [17]): inactive | fold change (FC) (CAKI-1 [18]): 0.62 | fold change (FC) (CAKI-1 [20]): 2.89 | Activity (CAKI-1 [21]): inactive

Cc1cnc(Nc2ccc(N3CCN(S(=O)(=O)c4ccccc4)CC3)cc2)nc1Nc1cccc(S(=O)(=O)NC(C)(C)C)c1
viability at 10 µM (CAKI-1 [7]): 83.8%

COc1cc(Nc2ncc(C)c(Nc3cccc(S(=O)(=O)NC4CCC4)c3)n2)cc(OC)c1
viability at 10 µM (CAKI-1 [7]): 42%

Cc1cc(NS(=O)(=O)c2ccc(Nc3ncc(C)c(Nc4cccc(S(=O)(=O)NC(C)(C)C)c4)n3)cc2)no1
viability at 10 µM (CAKI-1 [7]): 95.5%

Cc1ccccc1NC(=O)N1CCN(c2ccc(Nc3ncc(C)c(Nc4cccc(S(=O)(=O)NC(C)(C)C)c4)n3)cc2)CC1
viability at 10 µM (CAKI-1 [7]): 45%

COc1cc(Nc2ncc(C)c(Nc3cccc(S(=O)(=O)NC(C)(C)C)c3)n2)c(Cl)cc1Cl
viability at 10 µM (CAKI-1 [7]): 108%

Cc1cnc(Nc2cccc(S(=O)(=O)N3CCOCC3)c2)nc1Nc1cccc(S(=O)(=O)NC(C)(C)C)c1
viability at 10 µM (CAKI-1 [7]): 60.6%

COc1cc(Nc2ncc(C)c(Nc3cccc(S(=O)(=O)N4CCOCC4)c3)n2)cc(OC)c1OC
fold change (FC) (CAKI-1 [1]): 10.69 | fold change (FC) [2]: 0.12 | viability at 24 h, 5 µM [4]: 70.6% | IC50 [5]: 9.67 µM | Activity (CAKI-1 [6]): Active | viability at 10 µM (CAKI-1 [7]): 35.8% | fold change (FC) (CAKI-1 [8]): 0.64 | viability at 10 µM (CAKI-1 [9]): 38.5% | EC50 (CAKI-1 [10]): 41.2 µM | fold change (FC) [11]: 0.65 | viability at 24 h, 1 µM [12]: 105% | viability at 24 h, 1 µM [13]: 89.2% | fold change (FC) [14]: 0.22 | IC50 (CAKI-1 [15]): 2.9 µM | Activity (CAKI-1 [15]): Dose-dependent-effect | IC50 (CAKI-1 [16]): 1.83 µM | Activity (CAKI-1 [17]): Active | fold change (FC) (CAKI-1 [18]): 0.5 | viability at 24 h, 5 µM [19]: 75.3% | fold change (FC) (CAKI-1 [20]): 3.76 | Activity (CAKI-1 [21]): Active

COc1cc(Nc2ncc(C)c(Nc3ccc(N4CCN(C)CC4)cc3)n2)cc(OC)c1OC
viability at 10 µM (CAKI-1 [7]): 39.9%

Cc1cnc(Nc2cccc(S(=O)(=O)NC(C)(C)C)c2)nc1Nc1cccc(S(=O)(=O)NC(C)(C)C)c1
viability at 10 µM (CAKI-1 [7]): 64.7%

Cc1ccc(Nc2nc(Nc3ccc(N4CCN(C)CC4)cc3)ncc2C)cc1S(N)(=O)=O
viability at 10 µM (CAKI-1 [7]): 34.7%

Cc1cc(Nc2ncc(Cl)c(Nc3ccccc3S(=O)(=O)C(C)C)n2)c(OC(C)C)cc1C1CCNCC1 [CERITINIB]
IC50 [5]: 13.1 µM

Cc1cnc(Nc2ccc(OCCCN3CCOCC3)cc2)nc1Nc1cccc(S(=O)(=O)NC(C)(C)C)c1
viability at 10 µM (CAKI-1 [7]): 41.9%

C#CCN1CCN(c2ccc(Nc3ncc(C)c(Nc4cccc(S(=O)(=O)NC(C)(C)C)c4)n3)cc2)CC1
viability at 10 µM (CAKI-1 [7]): 41.2%

COc1cc(Nc2ncc(C)c(Nc3cccc(S(=O)(=O)N4CCOCC4)c3)n2)cc(OC)c1
viability at 10 µM (CAKI-1 [7]): 45.4%

Cc1cnc(Nc2ccc(N3CCN(C(=O)N(C)c4ccccc4)CC3)cc2)nc1Nc1cccc(S(=O)(=O)NC(C)(C)C)c1
viability at 10 µM (CAKI-1 [7]): 44.5%
